Laboratory results published in article PMC7649969, “Pyrazolyl-pyrimidones inhibit the function of human solute carrier protein SLC11A2 (hDMT1) by metal chelation” (RSC Medicinal Chemistry, 2020).

Biological target: T1, hDMT1 (Homo sapiens, UniProt P49281)
T1 sequence (P49281 1-568): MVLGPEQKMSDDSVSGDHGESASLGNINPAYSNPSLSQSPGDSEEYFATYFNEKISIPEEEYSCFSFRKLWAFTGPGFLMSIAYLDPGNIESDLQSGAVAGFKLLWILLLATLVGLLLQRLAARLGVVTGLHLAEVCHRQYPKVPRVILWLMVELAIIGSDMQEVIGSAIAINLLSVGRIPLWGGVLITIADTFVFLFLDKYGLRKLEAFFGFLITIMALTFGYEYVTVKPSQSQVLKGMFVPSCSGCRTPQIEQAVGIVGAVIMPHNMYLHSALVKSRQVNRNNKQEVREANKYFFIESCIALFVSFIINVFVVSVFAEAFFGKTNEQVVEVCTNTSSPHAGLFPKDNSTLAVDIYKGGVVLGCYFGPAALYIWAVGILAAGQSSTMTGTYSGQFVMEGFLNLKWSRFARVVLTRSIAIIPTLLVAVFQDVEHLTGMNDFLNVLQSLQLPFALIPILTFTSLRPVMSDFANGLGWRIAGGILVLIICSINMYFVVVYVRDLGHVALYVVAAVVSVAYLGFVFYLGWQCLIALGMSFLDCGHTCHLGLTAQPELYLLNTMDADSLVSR
Assay: 55Fe2+ uptake in Xenopus laevis oocytes overexpressing hDMT1
Assay type: cell-based
Set-up: DsRED; expressed in transfected cells; host or cells: HEK293T (ATCC CRL-3216), transient transfection with Lipofectamine 2000
Settings: compound 10 μM, 55Fe2+ 20 μM
Protocol: Fig. 3 Characterization of Fe^2+ transport inhibition by 1 and 13 in X. laevis oocytes (collected from frogs under license number BE60/18 conceded by the Veterinärdienst des Kantons BE, Sekretariat Tierversuche). (a) Upper panel: Average ^55Fe^2+-uptake (20 μM) by hDMT1-expressing and non-injected oocytes in the absence and the presence of the indicated compounds (10 μM). Data was normalized to ^55Fe^2+-uptake (pmol min^–1) in the absence of compounds represented as mean ± SD (16–29 oocytes). Lower panel: Net uptake of ^55Fe^2+ (20 μM) by hDMT1 in the absence and the presence of the indicated compounds (10 μM). For each batch of oocytes, uptake values were corrected for unspecific iron uptake in non-injected oocytes. Data were normalized to the mean iron uptake by hDMT1 WT (pmol min^–1) and represented as mean ± SD (14–34 oocytes). (b and c) Electrophysiology. […] For each trace, recorded currents were corrected for the background currents observed without substrate. (b) Representative traces recorded with hDMT1 injected oocytes (upper panel) and non-injected oocytes (lower panel). […] Statistical differences were assessed using T-test or Mann–Whitney U test (Fe^2+-uptake by hDMT1 WT vs. non-injected oocytes or vs. compound); p > 0.05 = ns; p < 0.001 = ***. […]

Row | inhibition of radioactive iron uptake in oocytes | inhibition at 10 µM (read-out: inhibition of radioactive iron uptake in oocytes) [%] | SMILES
1 | totally inhibited |  | N=C(N)SCc1cccc2c1oc1c(CSC(=N)N)cccc12 [Compound 1, reference compound]
2 |  | 50 | Cc1cc(=O)[nH]c(-n2nc3c(c2C)CCCC3)n1 [Compound 13]
